In PMC5613053 (Investigational New Drugs, 2017):

Key:
[1] = test system: Ba/F3 cells expressing FLT3-ITD-D835Y; assay: Ba/F3 FLT3-ITD-D835Y subcutaneous xenograft; type: in vivo, mice; conditions: up to 7 days
Protocol: Once tumor growth had been confirmed, mice xenografted with MV4–11 cells were monitored for 28 days; mice xenografted with Ba/F3 cells expressing FLT3 mutations were monitored for 7 days. Tumor diameter was measured using a caliper, and tumor volume was determined by calculating the volume of an ellipsoid using the formula: length × width^2 × 0.5. Body weight was measured using a standard balance. Data are expressed as mean ± SEM from n = 6 mice/group (MV4–11) and n = 5 mice/group (Ba/F3).
After tumor establishment, mice were divided into groups such that the mean tumor volume was approximately equal in each group.

TRKA = target: T1, TRKA (Homo sapiens, UniProt P04629); assay: Tyrosine kinase panel (off-chip MSA); type: biochemical; conditions: 5 nM; single experiment
T1 construct: purchased Carna Biosciences, Inc
T1 sequence (P04629 33-796): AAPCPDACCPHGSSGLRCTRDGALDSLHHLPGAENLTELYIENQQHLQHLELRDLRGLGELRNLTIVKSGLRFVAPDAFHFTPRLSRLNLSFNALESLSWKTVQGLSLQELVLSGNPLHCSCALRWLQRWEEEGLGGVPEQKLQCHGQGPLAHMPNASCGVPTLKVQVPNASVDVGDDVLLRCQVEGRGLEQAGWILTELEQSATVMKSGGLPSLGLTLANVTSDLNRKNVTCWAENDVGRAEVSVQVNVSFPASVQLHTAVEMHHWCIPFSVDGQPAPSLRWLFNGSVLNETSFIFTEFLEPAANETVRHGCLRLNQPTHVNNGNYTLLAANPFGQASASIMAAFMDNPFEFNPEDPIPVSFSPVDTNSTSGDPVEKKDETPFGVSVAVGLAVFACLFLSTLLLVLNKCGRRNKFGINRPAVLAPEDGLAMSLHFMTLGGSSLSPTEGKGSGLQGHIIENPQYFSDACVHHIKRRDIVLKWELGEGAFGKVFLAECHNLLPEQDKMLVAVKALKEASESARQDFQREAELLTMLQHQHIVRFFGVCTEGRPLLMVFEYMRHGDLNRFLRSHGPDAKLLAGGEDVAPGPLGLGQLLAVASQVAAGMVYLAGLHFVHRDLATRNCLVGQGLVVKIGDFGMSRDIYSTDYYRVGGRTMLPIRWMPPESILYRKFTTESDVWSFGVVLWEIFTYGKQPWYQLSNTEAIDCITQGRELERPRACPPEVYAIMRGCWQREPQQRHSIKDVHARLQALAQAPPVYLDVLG
Protocol: (§1) Inhibitory assay for the panel of tyrosine kinases was conducted using off-chip MSA. Percentage inhibitions were determined in a single experiment

ALK = target: T2, ALK (Homo sapiens, UniProt Q9UM73); assay: Tyrosine kinase panel (off-chip MSA); type: biochemical; conditions: 1 nM; single experiment
T2 construct: purchased Carna Biosciences, Inc
T2 sequence (Q9UM73 19-1620): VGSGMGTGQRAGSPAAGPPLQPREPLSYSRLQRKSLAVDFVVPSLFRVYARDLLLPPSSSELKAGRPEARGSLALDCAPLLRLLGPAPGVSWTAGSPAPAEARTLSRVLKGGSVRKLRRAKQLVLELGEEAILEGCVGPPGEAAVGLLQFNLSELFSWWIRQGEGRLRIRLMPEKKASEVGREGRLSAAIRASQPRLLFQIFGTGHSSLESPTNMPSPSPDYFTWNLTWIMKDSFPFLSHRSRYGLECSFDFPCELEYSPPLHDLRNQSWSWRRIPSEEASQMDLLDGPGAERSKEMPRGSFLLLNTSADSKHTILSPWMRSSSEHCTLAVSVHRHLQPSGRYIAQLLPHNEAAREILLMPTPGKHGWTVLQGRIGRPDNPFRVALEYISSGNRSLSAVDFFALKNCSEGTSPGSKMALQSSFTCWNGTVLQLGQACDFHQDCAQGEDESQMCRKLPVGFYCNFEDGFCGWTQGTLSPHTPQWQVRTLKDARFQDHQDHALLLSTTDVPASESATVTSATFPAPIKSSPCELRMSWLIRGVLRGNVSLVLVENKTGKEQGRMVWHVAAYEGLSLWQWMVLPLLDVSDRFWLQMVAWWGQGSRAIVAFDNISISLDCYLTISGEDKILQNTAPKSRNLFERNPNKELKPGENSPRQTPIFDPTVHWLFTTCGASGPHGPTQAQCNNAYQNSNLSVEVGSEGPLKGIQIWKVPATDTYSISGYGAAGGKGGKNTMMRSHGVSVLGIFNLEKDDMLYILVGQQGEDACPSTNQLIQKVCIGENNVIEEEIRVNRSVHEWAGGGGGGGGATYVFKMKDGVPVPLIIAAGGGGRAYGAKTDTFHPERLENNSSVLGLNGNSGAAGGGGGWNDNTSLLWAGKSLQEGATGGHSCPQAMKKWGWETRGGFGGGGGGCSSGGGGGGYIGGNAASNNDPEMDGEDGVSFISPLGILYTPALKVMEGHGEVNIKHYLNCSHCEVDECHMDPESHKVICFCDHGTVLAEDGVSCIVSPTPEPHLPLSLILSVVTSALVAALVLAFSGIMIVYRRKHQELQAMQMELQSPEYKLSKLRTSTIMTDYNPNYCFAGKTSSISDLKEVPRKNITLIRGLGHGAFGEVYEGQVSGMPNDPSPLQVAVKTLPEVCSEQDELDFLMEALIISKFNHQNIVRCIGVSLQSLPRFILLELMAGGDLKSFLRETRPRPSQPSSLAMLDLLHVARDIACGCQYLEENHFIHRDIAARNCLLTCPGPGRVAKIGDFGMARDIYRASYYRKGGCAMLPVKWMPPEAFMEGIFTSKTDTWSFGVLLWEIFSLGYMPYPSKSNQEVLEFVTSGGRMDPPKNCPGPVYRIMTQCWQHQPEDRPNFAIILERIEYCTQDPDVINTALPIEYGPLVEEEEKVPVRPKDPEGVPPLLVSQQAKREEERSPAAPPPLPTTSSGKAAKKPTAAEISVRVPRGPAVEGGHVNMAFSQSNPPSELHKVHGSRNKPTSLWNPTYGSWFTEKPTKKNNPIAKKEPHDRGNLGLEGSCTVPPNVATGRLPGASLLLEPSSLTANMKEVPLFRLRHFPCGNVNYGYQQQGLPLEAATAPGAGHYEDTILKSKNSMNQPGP
Protocol: as §1

RET = target: T3, RET (Homo sapiens, UniProt P07949); assay: Tyrosine kinase panel (off-chip MSA); type: biochemical; conditions: 5 nM; single experiment
T3 construct: purchased Carna Biosciences, Inc
T3 sequence (P07949 29-1114): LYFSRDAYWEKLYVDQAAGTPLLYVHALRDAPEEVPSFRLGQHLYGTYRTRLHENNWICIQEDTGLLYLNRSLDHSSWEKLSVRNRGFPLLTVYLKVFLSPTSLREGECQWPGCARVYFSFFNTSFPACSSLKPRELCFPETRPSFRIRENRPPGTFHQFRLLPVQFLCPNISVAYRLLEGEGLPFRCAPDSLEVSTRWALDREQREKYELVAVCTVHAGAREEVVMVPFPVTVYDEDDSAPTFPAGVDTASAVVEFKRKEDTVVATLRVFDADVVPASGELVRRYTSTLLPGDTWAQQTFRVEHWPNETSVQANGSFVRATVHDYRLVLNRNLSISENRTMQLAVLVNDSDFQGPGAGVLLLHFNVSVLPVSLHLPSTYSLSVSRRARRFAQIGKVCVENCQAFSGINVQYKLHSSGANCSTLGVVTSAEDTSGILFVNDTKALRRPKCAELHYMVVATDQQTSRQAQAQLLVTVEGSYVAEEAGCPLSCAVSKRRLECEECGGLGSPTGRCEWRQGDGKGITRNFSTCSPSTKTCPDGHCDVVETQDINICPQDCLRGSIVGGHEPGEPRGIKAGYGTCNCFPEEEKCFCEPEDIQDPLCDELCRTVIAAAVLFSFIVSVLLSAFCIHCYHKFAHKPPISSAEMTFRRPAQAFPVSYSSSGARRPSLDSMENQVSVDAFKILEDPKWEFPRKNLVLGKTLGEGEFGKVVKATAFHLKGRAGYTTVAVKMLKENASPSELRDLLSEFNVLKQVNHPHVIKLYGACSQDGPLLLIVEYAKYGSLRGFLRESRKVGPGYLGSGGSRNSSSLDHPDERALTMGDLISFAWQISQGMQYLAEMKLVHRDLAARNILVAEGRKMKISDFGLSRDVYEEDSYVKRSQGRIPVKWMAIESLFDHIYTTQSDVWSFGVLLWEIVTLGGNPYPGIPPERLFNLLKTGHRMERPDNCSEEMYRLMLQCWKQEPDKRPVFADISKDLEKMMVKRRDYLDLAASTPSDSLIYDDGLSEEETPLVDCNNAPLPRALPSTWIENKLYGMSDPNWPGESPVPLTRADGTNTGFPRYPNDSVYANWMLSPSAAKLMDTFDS
Protocol: as §1

ROS = target: T4, ROS (Homo sapiens, UniProt P08922); assay: Tyrosine kinase panel (off-chip MSA); type: biochemical; conditions: 5 nM; single experiment
T4 construct: purchased Carna Biosciences, Inc
Protocol: as §1

MER = target: T5, MER (Homo sapiens, UniProt Q12866); assay: Tyrosine kinase panel (off-chip MSA); type: biochemical; conditions: 5 nM; single experiment
T5 construct: purchased Carna Biosciences, Inc
Protocol: as §1

c-KIT = target: T6, c-KIT (Homo sapiens, UniProt P10721); assay: Kinase inhibitory assay (TK-ELISA / off-chip MSA); type: biochemical
T6 construct: purchased Carna Biosciences, Inc
T6 sequence (P10721 26-976): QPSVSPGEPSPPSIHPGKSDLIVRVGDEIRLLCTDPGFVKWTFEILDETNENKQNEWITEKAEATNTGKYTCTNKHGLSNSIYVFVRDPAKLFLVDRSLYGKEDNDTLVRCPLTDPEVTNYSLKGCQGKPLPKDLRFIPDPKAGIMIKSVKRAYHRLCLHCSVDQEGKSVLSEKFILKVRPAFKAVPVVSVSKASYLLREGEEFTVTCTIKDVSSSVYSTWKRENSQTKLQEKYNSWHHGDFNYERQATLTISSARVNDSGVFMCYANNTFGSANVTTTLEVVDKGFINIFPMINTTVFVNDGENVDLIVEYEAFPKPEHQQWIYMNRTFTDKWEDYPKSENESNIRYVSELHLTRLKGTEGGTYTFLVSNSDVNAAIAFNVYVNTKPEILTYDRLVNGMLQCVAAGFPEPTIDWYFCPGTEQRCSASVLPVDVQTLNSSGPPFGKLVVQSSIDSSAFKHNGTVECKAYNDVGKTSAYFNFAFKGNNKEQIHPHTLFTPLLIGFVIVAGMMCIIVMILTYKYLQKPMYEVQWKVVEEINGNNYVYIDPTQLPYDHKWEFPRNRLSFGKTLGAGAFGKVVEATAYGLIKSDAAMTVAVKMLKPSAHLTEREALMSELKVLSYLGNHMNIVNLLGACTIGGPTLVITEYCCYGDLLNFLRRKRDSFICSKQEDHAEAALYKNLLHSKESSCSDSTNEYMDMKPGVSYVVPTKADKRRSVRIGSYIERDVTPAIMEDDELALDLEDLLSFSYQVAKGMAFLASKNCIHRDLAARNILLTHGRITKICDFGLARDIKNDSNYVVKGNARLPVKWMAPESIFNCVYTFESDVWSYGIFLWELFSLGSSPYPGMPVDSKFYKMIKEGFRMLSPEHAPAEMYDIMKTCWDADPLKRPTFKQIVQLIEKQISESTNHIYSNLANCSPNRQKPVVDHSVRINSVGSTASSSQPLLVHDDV
Protocol: These assays were conducted according to the manufacturer’s instructions. […] TK-ELISA and MSA assays were used to conduct IC50 studies for FLT3, LTK, AXL, and c-KIT; the HTRF® KinEASE™-TK assay (Sceti Medical Labo, Tokyo, Japan) was performed according to the manufacturer’s protocol to assess the IC50 value of echinoderm microtubule-associated protein-like 4-ALK (EML4-ALK; three individual experiments for each kinase).

What does the source list for `CCc1nc(C(N)=O)c(Nc2ccc(N3CCC(N4CCN(C)CC4)CC3)c(OC)c2)nc1NC1CCOCC1` [gilteritinib]?
Antitumor effect (tumor volume) ([1]; 10 mg/kg once-daily oral): showed antitumor efficacy; Antitumor effect (tumor volume) ([1]; 30 mg/kg once-daily oral): induced tumor regression; inhibition at 0.005 µM (TRKA): > 50%; inhibition at 0.001 µM (ALK): > 50%; inhibition at 0.005 µM (RET): > 50%; inhibition at 0.005 µM (ROS): > 50%; inhibition at 0.005 µM (MER): > 50%; IC50 (c-KIT): 230 nM
